In patent US10336762B2 (priority 2017, dated 2019) one finds EC50 and IC50 data, which are given here for 23 compounds.

In one assay the test system is TNFα. Kind of assay: cells. Format: cell-based, human. The following applies: Homo sapiens, Monocyte, LPS-stimulated human monocytes, TNFα content; read-out: EC50 TNF.
The target in another assay is IRAK4 enzyme (Homo sapiens (Human), UniProt Q9NWZ3). Description: biochemical. The format is biochemical. The following applies: IRAK4 enzyme, TR-FRET (HTRF), 500 μM ATP. In general terms: Time-resolved FRET reads energy transfer from a long-lived donor to a nearby acceptor.
IRAK4 enzyme, sequence (Q9NWZ3 whole entry): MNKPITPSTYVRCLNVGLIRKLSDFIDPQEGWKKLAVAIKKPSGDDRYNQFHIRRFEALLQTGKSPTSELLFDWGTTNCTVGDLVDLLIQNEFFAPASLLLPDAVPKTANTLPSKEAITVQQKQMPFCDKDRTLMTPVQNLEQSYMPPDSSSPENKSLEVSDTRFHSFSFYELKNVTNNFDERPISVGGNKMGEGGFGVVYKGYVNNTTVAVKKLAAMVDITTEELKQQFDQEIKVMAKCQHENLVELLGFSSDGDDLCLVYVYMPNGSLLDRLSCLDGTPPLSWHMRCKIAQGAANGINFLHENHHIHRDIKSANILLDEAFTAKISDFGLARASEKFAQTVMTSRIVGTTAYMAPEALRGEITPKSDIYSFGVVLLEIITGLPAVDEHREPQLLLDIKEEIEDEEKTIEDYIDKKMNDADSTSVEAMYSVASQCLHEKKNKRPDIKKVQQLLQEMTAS

Turning to `Cc1ncoc1-c1ccc(Nc2cc(-c3ccc4cc(C#N)cnn34)ncc2C(=O)NC[C@@H](F)C(C)(C)O)cn1` [Example 632, (R)-6-(3-cyanopyrrolo[1,2-b]pyridazin-7-yl)-N-(2-fluoro-3-hydroxy-3-methylbutyl)-4-((6-(4-methyloxazol-5-yl)pyridin-3-yl)amino) nicotinamide], in the assay with TNFα, the concentration for a half-maximal effect (EC50) (as a rule, the concentration at which the effect is half-maximal) was 28 nM. Further, on IRAK4 enzyme, the IC50 (in general, the concentration that inhibits the measured activity by half) is under 1 nM.

For the compound `CC(C)(O)[C@H](F)CNC(=O)c1cnc(-c2ccc3cc(C#N)cnn23)cc1NC12CCC(c3cnco3)(CC1)OC2` [Example 633, (R)-6-(3-cyanopyrrolo[1,2-b]pyridazin-7-yl)-N-(2-fluoro-3-hydroxy-3-methylbutyl)-4-((1-(oxazol-5-yl)-2-oxabicyclo[2.2.2]octan-4-yl)amino) nicotinamide], the EC50 in the assay on TNFα is 2 nM. This compound also displayed an IC50 at IRAK4 enzyme of under 1 nM.

Turning to `Cc1ncoc1C12CCC(Nc3cc(-c4ccc5cc(C#N)cnn45)ncc3C(=O)NC[C@@H](F)C(C)(C)O)(CC1)CO2` [Example 634, (R)-6-(3-cyanopyrrolo[1,2-b]pyridazin-7-yl)-N-(2-fluoro-3-hydroxy-3-methylbutyl)-4-((1-(4-methyloxazol-5-yl)-2-oxabicyclo[2.2.2]octan-4-yl)amino)nicotinamide], the EC50 in the assay on TNFα was found to be 7 nM. In addition, on IRAK4 enzyme, the half-maximal inhibitory concentration (IC50) is under 1 nM.

For `CCOc1cc(Nc2cc(-c3ccc4cc(C#N)cnn34)ncc2C(=O)NC[C@@H](F)C(C)(C)O)cnc1-c1cnco1` [Example 635, (R)-6-(3-cyanopyrrolo[1,2-b]pyridazin-7-yl)-4-((5-ethoxy-6-(oxazol-5-yl)pyridin-3-yl)amino)-N-(2-fluoro-3-hydroxy-3-methylbutyl)nicotinamide], the EC50 in the assay on TNFα is over 10000 nM. In addition, the half-maximal inhibitory concentration (IC50) against IRAK4 enzyme is 8 nM.

Turning to `CC(C)(O)[C@H](F)CNC(=O)c1cnc(-c2ccc3cc(C#N)cnn23)cc1NC1CC(Cc2cnco2)C1` (stereo partly drawn) [Example 636, (R)-6-(3-cyanopyrrolo[1,2-b]pyridazin-7-yl)-N-(2-fluoro-3-hydroxy-3-methylbutyl)-4-((3-(oxazol-5-ylmethyl)cyclobutyl)amino)nicotinamide], in the assay with TNFα, the EC50 was found to be 33 nM. This compound also gave a concentration for half-maximal inhibition (IC50) on IRAK4 enzyme of under 1 nM.

`CC(C)(O)[C@H](F)CNC(=O)c1cnc(-c2ccc3cc(C#N)cnn23)cc1N[C@H]1CC[C@H](c2nnco2)CC1` [Example 637, 4-(((1r,4R)-4-(1,3,4-oxadiazol-2-yl)cyclohexyl)amino)-6-(3-cyano-pyrrolo[1,2-b]pyridazin-7-yl)-N-((R)-2-fluoro-3-hydroxy-3-methylbutyl) nicotinamide]: the half-maximal effective concentration (EC50) with TNFα amounted to 21 nM. The compound further registered an IC50 at IRAK4 enzyme of under 1 nM.

Regarding `CC(C)(O)[C@H](F)CNC(=O)c1cnc(-c2ccc3cc(C#N)cnn23)cc1N[C@@H]1CC[C@@H](c2cnco2)OC1` [Example 639, 6-(3-cyanopyrrolo[1,2-b]pyridazin-7-yl)-N-((R)-2-fluoro-3-hydroxy-3-methylbutyl)-4-(((3R,6S)-6-(oxazol-5-yl)tetrahydro-2H-pyran-3-yl)amino)nicotinamide], the 50% effective concentration (EC50) with TNFα is 43 nM. The same compound showed an IC50 against IRAK4 enzyme of 1 nM.

For `CC(C)(O)[C@H](F)CNC(=O)c1cnc(-c2ccc3cc(C#N)cnn23)cc1Nc1cnc(-c2cnco2)nc1` [Example 641, (R)-6-(3-cyanopyrrolo[1,2-b]pyridazin-7-yl)-N-(2-fluoro-3-hydroxy-3-methylbutyl)-4-((2-(oxazol-5-yl)pyrimidin-5-yl)amino)nicotinamide], the EC50 in the assay on TNFα is 21 nM. For the same compound, the concentration for half-maximal inhibition (IC50) against IRAK4 enzyme is under 1 nM.

`CC(C)(O)[C@H](F)CNC(=O)c1cnc(-c2ccc3cc(C#N)cnn23)cc1N[C@H]1CC[C@H](c2nncs2)CC1` [Example 642, 4-(((1r,4R)-4-(1,3,4-thiadiazol-2-yl)cyclo-hexyl)amino)-6-(3-cyanopyrrolo[1,2-b]pyridazin-7-yl)-N-((R)-2-fluoro-3-hydroxy-3-methylbutyl)nicotinamide]: the EC50 in the assay on TNFα amounted to 13 nM. At IRAK4 enzyme, this compound registered a concentration for half-maximal inhibition (IC50) of under 1 nM.

With `CC(C)Nc1cc(-c2ccc3cc(C#N)cnn23)ncc1C(=O)NC[C@@H](F)C1(O)CC1` [Example 643, (R)-6-(3-cyanopyrrolo[1,2-b]pyridazin-7-yl)-N-(2-fluoro-2-(1-hydroxycyclo-propyl)ethyl)-4-(isopropyl-amino)nicotinamide], the concentration giving a half-maximal response (EC50) in the assay with TNFα was found to be 8 nM. Further, the IC50 against IRAK4 enzyme was under 1 nM.

As for `Cc1ncc(C2CCC(Nc3cc(-c4ccc5cc(C#N)cnn45)ncc3C(=O)NC[C@@H](F)C(C)(C)O)CC2)o1` (stereo partly drawn) [Example 644, (R)-6-(3-cyanopyrrolo[1,2-b]pyridazin-7-yl)-N-(2-fluoro-3-hydroxy-3-methylbutyl)-4-((4-(2-methyloxazol-5-yl)cyclo-hexyl)amino)nicotinamide], in the assay with TNFα, the EC50 turned out to be 36 nM. Also, the midpoint of inhibition at IRAK4 enzyme, the IC50, lay at 1 nM.

In the case of `CC(C)(O)[C@H](F)CNC(=O)c1cnc(-c2ccc3cc(C#N)cnn23)cc1Nc1ccc2c(N)n[nH]c2c1` [Example 647, (R)-4-((3-amino-1H-indazol-6-yl)amino)-6-(3-cyanopyrrolo[1,2-b]pyridazin-7-yl)-N-(2-fluoro-3-hydroxy-3-methyl-butyl)nicotinamide], the EC50 in the assay on TNFα is 48 nM. In addition, the concentration for half-maximal inhibition (IC50) on IRAK4 enzyme was under 1 nM.

In the case of `COCc1ccc(Nc2cc(-c3ccc4cc(C#N)cnn34)ncc2C(=O)NC[C@@H](F)C(C)(C)O)cc1` [Example 648, (R)-6-(3-cyanopyrrolo[1,2-b]pyridazin-7-yl)-N-(2-fluoro-3-hydroxy-3-methylbutyl)-4-((4-(methoxymethyl)phenyl)amino)nicotinamide], the concentration for a half-maximal effect (EC50) in the assay with TNFα came to 51 nM. At IRAK4 enzyme, it took 1 nM to reach half-maximal inhibition (IC50).

Consider `CC(C)(O)[C@H](F)CNC(=O)c1cnc(-c2ccc3cc(C#N)cnn23)cc1Nc1ccc(OC2COC2)nc1` [Example 649, (R)-6-(3-cyanopyrrolo[1,2-b]pyridazin-7-yl)-N-(2-fluoro-3-hydroxy-3-methylbutyl)-4-((6-(oxetan-3-yloxy)pyridin-3-yl)amino)nicotinamide], for which the EC50 in the assay on TNFα is over 10000 nM. Moreover, the midpoint of inhibition on IRAK4 enzyme, the IC50, lay at 21 nM.

`CC(C)(O)[C@H](F)CNC(=O)c1cnc(-c2ccc3cc(C#N)cnn23)cc1Nc1ccc2c(c1)CC(=O)N2` [Example 650, (R)-6-(3-cyanopyrrolo[1,2-b]pyridazin-7-yl)-N-(2-fluoro-3-hydroxy-3-methylbutyl)-4-((2-oxo-indolin-5-yl)amino) nicotinamide]: in the assay with TNFα, the EC50 was 16 nM. In addition, the IC50 against IRAK4 enzyme was under 1 nM.

Regarding `CC(C)(O)[C@H](F)CNC(=O)c1cnc(-c2ccc3cc(C#N)cnn23)cc1Nc1ccc2c(c1)OC(F)(F)O2` [Example 651, (R)-6-(3-cyanopyrrolo[1,2-b]pyridazin-7-yl)-4-((2,2-difluorobenzo[d][1,3]dioxol-5-yl)amino)-N-(2-fluoro-3-hydroxy-3-methylbutyl) nicotinamide], the EC50 with TNFα came out at 188 nM. This compound registered an IC50 on IRAK4 enzyme of 5 nM.

With `CN1C(=O)C(C)(C)c2ccc(Nc3cc(-c4ccc5cc(C#N)cnn45)ncc3C(=O)NC[C@@H](F)C(C)(C)O)cc21` [Example 652, (R)-6-(3-cyanopyrrolo[1,2-b]pyridazin-7-yl)-N-(2-fluoro-3-hydroxy-3-methylbutyl)-4-((1,3,3-trimethyl-2-oxoindolin-6-yl)amino)nicotinamide], the EC50 with TNFα worked out at 188 nM. Inhibition at IRAK4 enzyme was half-maximal at 2 nM (IC50).

Turning to `CC1(C)C(=O)Nc2ccc(Nc3cc(-c4ccc5cc(C#N)cnn45)ncc3C(=O)NC[C@@H](F)C(C)(C)O)cc21` [Example 653, (R)-6-(3-cyanopyrrolo[1,2-b]pyridazin-7-yl)-4-((3,3-dimethyl-2-oxoindolin-5-yl)amino)-N-(2-fluoro-3-hydroxy-3-methylbutyl) nicotinamide], the EC50 in the assay with TNFα is 201 nM. At IRAK4 enzyme, it took 3 nM to reach half-maximal inhibition (IC50).

On to `CC(C)(O)[C@H](F)CNC(=O)c1cnc(-c2ccc3cc(C#N)cnn23)cc1N[C@H]1C[C@H](CNC(=O)OCC(F)(F)F)C1` [Example 654, 2,2,2-trifluoroethyl (((1R,3r)-3-((2-(3-cyanopyrrolo[1,2-b]pyridazin-7-yl)-5-(((R)-2-fluoro-3-hydroxy-3-methylbutyl)carbamoyl)pyridin-4-yl)amino)cyclo-butyl)methyl)carbamate], for which the EC50 with TNFα was 15 nM. The half-maximal inhibitory concentration (IC50) at IRAK4 enzyme was under 1 nM.

Turning to `CC(C)(O)[C@H](F)CNC(=O)c1cnc(-c2ccc3cc(C#N)cnn23)cc1N[C@H]1C[C@H](CNC(=O)CC(F)(F)F)C1` [Example 655, 6-(3-cyanopyrrolo[1,2-b]pyridazin-7-yl)-N-((R)-2-fluoro-3-hydroxy-3-methylbutyl)-4-(((1r,3R)-3-((3,3,3-trifluoropropan-amido)methyl)cyclobutyl)amino)nicotinamide], the EC50 in the assay on TNFα was determined as 27 nM. The half-maximal inhibitory concentration (IC50) against IRAK4 enzyme is under 1 nM.

For `CC(C)(O)[C@H](F)CNC(=O)c1cnc(-c2ccc3cc(C#N)cnn23)cc1N[C@H]1C[C@H](CNC(=O)CC(F)F)C1` [Example 656, 6-(3-cyanopyrrolo[1,2-b]pyridazin-7-yl)-4-(((1r,3R)-3-((3,3-difluoropropanamido)methyl)cyclobutyl)amino)-N-((R)-2-fluoro-3-hydroxy-3-methylbutyl) nicotinamide], the EC50 with TNFα turned out to be 40 nM. For the same compound, the concentration for half-maximal inhibition (IC50) against IRAK4 enzyme was under 1 nM.

With `CC(C)(O)[C@H](F)CNC(=O)c1cnc(-c2ccc3cc(C#N)cnn23)cc1Nc1ccc(N)nc1` [Example 657, (R)-4-((6-aminopyridin-3-yl)amino)-6-(3-cyano-pyrrolo[1,2-b]pyridazin-7-yl)-N-(2-fluoro-3-hydroxy-3-methylbutyl)nicotinamide], the EC50 in the assay with TNFα stood at 23 nM. Moreover, the IC50 on IRAK4 enzyme is under 1 nM.

In the case of `CC(C)(O)[C@H](F)CNC(=O)c1cnc(-c2ccc3cc(C#N)cnn23)cc1Nc1cnc(N)nc1` [Example 658, (R)-4-((2-aminopyrimidin-5-yl)amino)-6-(3-cyano-pyrrolo[1,2-b]pyridazin-7-yl)-N-(2-fluoro-3-hydroxy-3-methylbutyl)nicotinamide], in the assay with TNFα, the 50% effective concentration (EC50) is 37 nM. In addition, the IC50 at IRAK4 enzyme is under 1 nM.
